“And” between values parts separate entries of the source, which are not always exact repeats. Identical values can stand only once. Counter-ions that a name gives are not always drawn.

The test system of data set [1] is Plasmin. To be noted: J. Med. Chem., Vol. 15, No. 3, 247 (1972); cited from earlier work.
Data set [2] has as its target Thrombin (Homo sapiens, UniProt P00734). In words: Inhibition of thrombin (TAMe hydrolysis). The format is biochemical. To be noted: TAMe substrate; read-out: Concentration for 50% inhibition (IC50), thrombin.
Data set [3] deals with Chymotrypsin (Bos taurus, UniProt P00766). In words: Inhibition of chymotrypsin (ATE hydrolysis). The format is biochemical. The conditions noted are these: 15 mM ATE, 30 minutes, 37° C., pH 8.0; read-out: Concentration for 50% inhibition (IC50), chymotrypsin. Here is the method: (§1) Inhibitory effects on the TAMe(N^α -tosyl-L-arginine methyl ester) hydrolytic activity of trypsin, plasmin, plasma kallikrein and thrombin were estimated by Hesterin's method modified by Roberts. Inhibition of the BAEe(N^α -benzoyl-L-arginine ethyl ester) hydrolytic activity of pancreas kallikrein was determined by Hesterin's method after incubation at 37° C. for 30 minutes in a 0.1M borate buffer, pH 8.0. Inhibitory effects on urokinase were determined by the chromotropic acid method after incubation of 60 iu of urokinase with 10 mM AGLMe(acetylglycyl-L-lysine methyl ester) at 37° C. for 30 minutes in a 0.06M phosphate buffer, pH 7.5, containing 0.09M NaCl. Inhibition of chymotrypsin was determined by Hesterin's method after incubation with 15 mM ATE (N^α -acetyl-L-tyrosine ethyl ester) for 30 minutes at 37° C. in a 0.1M borate buffer, pH 8.0.

The target of data set [4] is T1, Trypsin (Bos taurus, UniProt P00760).
T1 sequence (P00760 24-246): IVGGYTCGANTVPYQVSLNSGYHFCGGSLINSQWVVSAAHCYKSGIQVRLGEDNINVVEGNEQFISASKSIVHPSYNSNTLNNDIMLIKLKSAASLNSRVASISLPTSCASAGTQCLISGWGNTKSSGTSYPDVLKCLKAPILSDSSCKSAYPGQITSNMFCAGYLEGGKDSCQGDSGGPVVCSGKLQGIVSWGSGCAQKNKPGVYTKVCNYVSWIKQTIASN
In words: Inhibition of trypsin (TAMe hydrolysis). The data set is classed as biochemical. The conditions noted are these: TAMe substrate; read-out: Concentration for 50% inhibition (IC50), trypsin. The method, then: as §1

Data set [5] addresses Urokinase (Homo sapiens, UniProt P00749). In words: Inhibition of urokinase (AGLMe, chromotropic acid method). The data set is classed as biochemical. The conditions noted are these: 60 iu urokinase, 10 mM AGLMe, 37° C., 30 minutes, pH 7.5; read-out: Concentration for 50% inhibition (IC50), urokinase. The method, then: as §1
Data set [6] can be described thus: Experimental asthma with actively sensitized guinea pigs. The format is in vivo, Hartley male guinea pigs. The conditions noted are these: individual animals, hydrochloride. The method, then: The evaluation was also performed in the experimental asthma with actively sensitized guinea pigs as follows: Hartley male guinea pigs each weighing 300 to 350 g were sensitized (by subcutaneous injection into the inguinal region) with an egg albumin solution (1 mg/ml) emulsified with an equal volume of Freund's complete adjuvant (5 mg/kg of body weight). Ten days later, the emulsion was injected subcutaneously into the axilla. On the 26th day after the first sensitization, the animals were subjected to the experiments which were conducted in the same manner as in the passively sensitized animals.

Data set [7] addresses Plasma kallikrein (Homo sapiens, UniProt P03952). In words: Inhibition of plasma kallikrein (TAMe hydrolysis). The data set is classed as biochemical. To be noted: TAMe substrate; read-out: Concentration for 50% inhibition (IC50), plasma kallikrein. The method, then:
as §1

Data set [8] can be described thus: Experimental asthma with passively sensitized guinea pigs. The format is in vivo, Hartley male guinea pigs. The conditions noted are these: 500 mg/kg oral, individual animals (10 animals). The method, then: Hartley male guinea pigs each weighing 300 to 350 g were passively sensitized by intravenous injection with rabbit anti-egg albumin serum (0.5 ml/kg). 24 hours after passive sensitization, the guinea pigs were placed in a chamber for an inhalation test and then subjected to continuous spraying for 900 seconds with a mist of a 2% egg albumin solution. A test sample suspended in 5% gum arabic was orally administered 1 hour prior to the antigen challenge. The preconvulsion time was measured.

The nature of data set [9]: Active systemic anaphylaxis in mice. The format is in vivo. To be noted: oral, survivors of 5 mice. Here is the method:
Egg albumin (10 mg) was mixed with 10 ml Bordetella pertusis vaccine (Takeda Chemical Industries, Ltd.), and the mixture was intraperitoneally injected into mice in an amount of 10 ml/kg. 22 days later, active systemic anaphylaxis was induced by intravenous injection of egg albumin dissolved in saline in an amount of 3 mg/10 ml/kg. A test sample suspended in 5% gum arabic was administered orally to the sensitized mice 1 hour prior to the antigen challenge. 24 hours after the antigen challenge, the number of survived mice was counted.

Data set [10] has as its target Plasmin (Homo sapiens, UniProt P00747). In words: Inhibition of plasmin (TAMe hydrolysis). The data set is classed as biochemical. The conditions noted are these: TAMe substrate; read-out: Concentration for 50% inhibition (IC50), plasmin. The method, then:
as §1

The test system of data set [11] is Mast cells. In words: Effects on histamine release from mast cells induced by compound 48/80. The data set is classed as cell-based. To be noted: Mast cell, read-out: Inhibition of histamine release.
Experimental: After incubation for 20 minutes at 37° C., the suspension was cooled to 4° C., and released histamine was determined as described by Shore et al. All samples examined were recognized to cause no disturbance in the fluorometric assay.
For data set [12], the system named is guinea pigs ilea. In words: Anti-histamine action. To be noted: Cavia porcellus, read-out: Anti-histamine effect inhibition of contraction. Further details: species or system guinea pig. The source says: (§2) Anti-acetylcholine and anti-histamine effects of the present compounds were examined using guinea pigs ilea by the usual method.
The nature of data set [13]: Passive cutaneous anaphylaxis. The format is in vivo. To be noted: rat, 125 mg/kg, p.o., 1 hour prior to antigen; dilution ratio of antigen × 32. Here is the method:
Diluted anti-egg albumin (rat anti-egg albumin serum) with saline (0.05 ml) was subcutaneously injected into the back of a rat. 48 hours later, egg albumin and Evans' blue dissolved in saline (egg albumin 10 mg and Evans' blue 5 mg/ml) were intravenously injected into the rat in an amount of 2.5 ml/kg. 45 minutes later, the rat was killed, bled and skined, and the permeated area (mm^2) of the dye was measured. Test samples were administered per os 1 hour prior to antigen injection.

The target in data set [14] is Pancreas kallikrein (Sus scrofa, UniProt P00752). In words: Inhibition of pancreas kallikrein (BAEe hydrolysis). To be noted: BAEe substrate, 37° C., 30 minutes, pH 8.0; read-out: Concentration for 50% inhibition (IC50), pancreas kallikrein. The data set is classed as biochemical. Here is the method: as §1
The subject of data set [15] is guinea pigs ilea. In words: Anti-acetylcholine action. Further details: species or system guinea pig. The conditions noted are these: Cavia porcellus, read-out: Anti-acetylcholine effect inhibition of contraction.
Excerpt: as §2

Data set [16] in a line: Acute toxicity in mice. To be noted: mouse, in vivo, po. The method, then:
(§3) Normal ICR strain mice (female: 22 g, male: 24 g) or Wister strain rats (female: 90 g, male: 95 g) were used. A test compound was orally given using a gastric sonde. […] The LD50 values were calculated by the Litchfield-Wilcoxon method.

Data set [17] in a line: Acute toxicity in rats. The conditions noted are these: rat, in vivo, po. Here is the method:
as §3

The test system of data set [18] is ileum of each sensitized guinea pig. In words: Schultz-Dale reaction. To be noted: Cavia porcellus, read-out: Inhibition of contraction (Schultz-Dale reaction). The method, then: Male guinea pigs were sensitized with bovine serum albumin by Freund's complete adjuvant method. After a lapse of 10 days, the animals were sensitized once more as described above. After two more weeks, an ileum of each sensitized guinea pig was removed and used for experiment. The ileum was equipped in a magnus tube containing each test sample, and 500 μg of bovine serum albumin was added. The contraction of the ileum was determined.

Chain of Plasma kallikrein (P03952 20-390 limits assumed, species assumed): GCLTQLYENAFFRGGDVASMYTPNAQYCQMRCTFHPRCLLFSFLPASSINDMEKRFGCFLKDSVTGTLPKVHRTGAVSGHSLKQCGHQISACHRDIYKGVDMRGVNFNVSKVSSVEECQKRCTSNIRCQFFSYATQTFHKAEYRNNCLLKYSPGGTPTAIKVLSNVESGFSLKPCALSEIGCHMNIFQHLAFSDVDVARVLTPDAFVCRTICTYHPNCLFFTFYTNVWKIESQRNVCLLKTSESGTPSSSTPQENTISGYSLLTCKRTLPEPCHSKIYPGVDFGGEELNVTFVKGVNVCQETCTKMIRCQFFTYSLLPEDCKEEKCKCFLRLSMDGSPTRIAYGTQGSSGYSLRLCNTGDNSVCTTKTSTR
Chain of Pancreas kallikrein (P00752 15-246 limits assumed): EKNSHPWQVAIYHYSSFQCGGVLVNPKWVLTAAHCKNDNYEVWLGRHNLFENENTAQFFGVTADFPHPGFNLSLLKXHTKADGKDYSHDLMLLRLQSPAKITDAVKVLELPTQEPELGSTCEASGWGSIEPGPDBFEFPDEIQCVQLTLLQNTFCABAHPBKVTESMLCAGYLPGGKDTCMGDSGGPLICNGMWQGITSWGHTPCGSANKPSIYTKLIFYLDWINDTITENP
Chain of Plasmin (Homo sapiens, UniProt P00747) (P00747 97-580 limits assumed, species assumed): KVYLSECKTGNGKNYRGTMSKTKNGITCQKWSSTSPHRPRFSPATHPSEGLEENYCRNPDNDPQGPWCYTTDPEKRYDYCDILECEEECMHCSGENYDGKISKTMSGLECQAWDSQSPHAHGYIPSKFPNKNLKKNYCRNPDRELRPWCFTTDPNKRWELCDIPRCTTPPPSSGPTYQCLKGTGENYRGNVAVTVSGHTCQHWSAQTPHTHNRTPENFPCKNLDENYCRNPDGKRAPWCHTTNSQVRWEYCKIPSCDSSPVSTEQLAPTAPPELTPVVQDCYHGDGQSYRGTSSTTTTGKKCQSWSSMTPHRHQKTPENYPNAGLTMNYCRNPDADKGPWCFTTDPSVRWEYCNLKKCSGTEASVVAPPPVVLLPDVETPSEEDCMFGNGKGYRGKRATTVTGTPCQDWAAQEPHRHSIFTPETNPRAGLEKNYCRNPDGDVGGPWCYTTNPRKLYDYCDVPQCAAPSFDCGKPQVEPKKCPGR

As to `N=C(N)NCC1CCC(C(=O)O)CC1` (stereo not drawn) [4-guanidinomethylcyclohexanecarboxylic acid], the anti-plasmin effects result in data set [1] is reported as “slight anti-plasmin effects”.

As for `CC(C)(C)c1ccc(OC(=O)[C@H]2CC[C@H](CNC(=N)N)CC2)cc1` [Compound 2, 4'-t-Butylphenyl trans-4-guanidinomethylcyclohexanecarboxylate hydrochloride], the IC50 worked out at 250 µM in [2]; 97 µM in data set [3]; 170 µM in [4]; 36 µM in data set [5]; 150 µM in data set [7]; 260 µM in [10]. The IC50 in [14] turned out to be 62 µM. Besides, the “Time to fall down” value is 699 sec. and > 900 sec. (4×) in data set [6] (125 mg/kg oral, 125 mg/kg); 632 sec. and > 900 sec. (4×) in data set [6] (250 mg/kg oral, 250 mg/kg); 768 sec. and > 900 sec. (4×) in data set [6] (500 mg/kg oral, 500 mg/kg); above 900 s in data set [8]. For the same compound, the “Survival after 24 hr. (5 mice)” value is 2 mice in [9] (100 mg/kg), 2 mice in data set [9] (250 mg/kg) and 4 mice in [9] (500 mg/kg). The inhibition at 10 µg/mL in data set [11] amounted to 46.7%. The inhibition at 25 µg/mL in data set [12] worked out at 82%; in data set [15] (final conc. 25 μg/ml), 96%; in data set [18], 64.3%. In addition, the inhibition at 50 µg/mL in [12] stood at 96.5%; in data set [15] (final conc. 50 μg/ml), 100%; in [18] it was 100%. The “Inhibition of passive cutaneous anaphylaxis” value in [13] is listed as 91.16%. For the same compound, the LD50 at 168 h in data set [16] amounted to 7300 mg/kg; in [17], 10800 mg/kg. The LD50 is listed as 5400 mg/kg in data set [16] (10080 min, hydrochloride) and 11,000 mg/kg in data set [17] (10080 min, hydrochloride).

A word on the inhibition: it is the share of the control response that was lost under treatment. As usually defined, the LD50 is the dose expected to kill half of the subjects tested.

The values are drawn from patent publication US4465851A, “Guanidinocyclohexanecarboxylic acid derivatives” (Nippon Chemiphar Co., Ltd., priority 1981, dated 1984).
